Test results: PubChem BioAssay (NCI)
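1) Cells in 96-well plates. 2) Compound, 48 h, 5 concentrations. 3) Linear interpolation between surrounding doses. 4) Unreached endpoint = highest concentration. TGI marks complete inhibition of growth.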

Tests used:
Assay in all cases: NCI anticancer screen, dose series, 48 h
OVCAR-5 ovarian = test system: OVCAR-5 ovarian
SK-MEL-2 melanoma = test system: SK-MEL-2 melanoma
SW-620 colon = test system: SW-620 colon
MALME-3M melanoma = test system: MALME-3M melanoma
OVCAR-3 ovarian = test system: OVCAR-3 ovarian
SK-OV-3 ovarian = test system: SK-OV-3 ovarian
HCT-15 colon = test system: HCT-15 colon
NCI-H522 lung = test system: NCI-H522 lung
NCI-H23 lung = test system: NCI-H23 lung
KM12 colon = test system: KM12 colon

| SMILES | TGI (OVCAR-5 ovarian) [µM] | TGI (SK-MEL-2 melanoma) [µM] | TGI (SW-620 colon) [µM] | TGI (MALME-3M melanoma) [µM] | TGI (OVCAR-3 ovarian) [µM] | TGI (SK-OV-3 ovarian) [µM] | TGI (HCT-15 colon) [µM] | TGI (NCI-H522 lung) [µM] | TGI (NCI-H23 lung) [µM] | TGI (KM12 colon) [µM] |
| --- | --- | --- | --- | --- | --- | --- | --- | --- | --- | --- |
| COc1ccc(C(OCC2OC(n3ccc(NC(=O)c4ccccc4)nc3=O)CC2OP2(=S)SCCS2)(c2ccccc2)c2ccc(OC)cc2)cc1 (configuration not stated) | 94.6 | > 100 | 44 | 70.2 | 58.5 | 64.2 | > 100 | 53 | > 100 | – |
| CC(C)C1N(C)c2ccc(Cl)cc2[C@H]2c3ccccc3CCN12 (some centres not stated) | > 100 | 74.1 | > 100 | – | 70.3 | > 100 | > 100 | 88.2 | > 100 | > 100 |
| CC(=O)N(O)c1ccc(-c2nc3ccccc3s2)cc1 | > 100 | > 100 | > 100 | 88.9 | > 100 | – | > 100 | 97.2 | > 100 | > 100 |
| CCN(CC)c1ccc(/C=C/C=C2C(=O)NC(=S)NC2=O)cc1 | > 100 | > 100 | > 100 | > 100 | > 72.6 | > 100 | > 100 | – | > 100 | > 100 |
| N#C/C(=C/NC(=S)c1ccncc1)C(N)=O | > 100 | > 100 | > 100 | – | > 100 | > 100 | > 100 | – | > 100 | > 100 |
| CN(C)/N=C1\CC(c2ccccc2)C(C#N)(C#N)C1(C#N)C#N (configuration not stated) | 59.1 | 40 | 36.2 | 34.2 | – | > 100 | 30.1 | 35.3 | 53.1 | > 100 |
| CC1C(c2ccc(Cl)cc2)c2cc3c(cc2OC1N1CCOCC1)OCO3 (configuration not stated) | > 100 | > 100 | > 100 | – | > 100 | – | > 100 | > 100 | > 100 | > 100 |
| C=CCOCn1cc(C)c(=O)[nH]c1=O | – | – | > 100 | > 100 | – | > 100 | > 100 | 50.2 | > 100 | > 100 |
| Clc1ccc(OCc2nn3c(CCc4nnc5sc(COc6ccc(Cl)cc6)nn45)nnc3s2)cc1 | > 100 | 87.8 | > 100 | – | 65.8 | > 100 | 95.8 | 30.1 | 72.1 | 60.2 |
| COc1cc(C2c3cc4c(cc3OC(N3CCNCC3)C2C)OCO4)cc(OC)c1OC (configuration not stated) | > 100 | > 40.6 | 17.3 | – | 0.512 | > 23.4 | > 39.9 | 8.32 | > 100 | 9.87 |
| CC1=NC(=Cc2ccc([N+](=O)[O-])cc2)C(=O)N1n1c(-c2ccccc2)nc2ccccc2c1=O | – | – | > 100 | > 100 | – | > 100 | > 100 | 74.5 | 81.2 | > 100 |
| COc1cc(-c2ccccc2N)c2cccnc2c1OC | – | 26.5 | 17.4 | 30.4 | 16.1 | 21.9 | 16.1 | 17.9 | 19.6 | 24.3 |
